SMILES strings stand for the structures.

Among the data in US8247431B2, “Heterocyclic hydrazide compound and pesticidal use of the same” (Sumitomo Chemical Company, Limited, priority 2007, dated 2012) are pest or weed control and control value values, retold here.

Common to all, as to format: in vivo
In test [1] the test system is diamondback moths (Plutella xylostella). Kind of test: Test Example 1: spray on cabbage, third-instar larvae of diamondback moths. To be noted: 20 ml/cup spray on cabbage, 10 third-instar larvae, counted after 5 days; for pest or weed control at 500 ppm: Plutella xylostella, 120 h, 500 ppm active ingredient, read-out: controlling value. The protocol: Then, it will be shown by Test Examples that the present compound is effective in controlling harmful arthropods. In the Test Example, controlling values were calculated by the following equation: Controlling value(%)={1−(Cb×Tai)/(Cai×Tb)}×100 wherein Cb: the number of worms in a non-treated section before treatment Cai: the number of worms in a non-treated section on observation Tb: the number of worms in a treated-section before treatment Tai: the number of worms in a treated-section on observation. Preparations of the test compounds obtained in Formulation Example 5 were diluted with water so that the active ingredient concentration became 500 ppm, to prepare test spray solutions. At the same time, cabbage was planted in a polyethylene cup, and grown until the third true leaf or the fourth true leaf was developed. The test spray solution as described above was sprayed in an amount of 20 ml/cup on the cabbage. After the spray solution on the cabbage was dried, 10 third-instar larvae of diamondback moths (Plutella xylostella) were put on the cabbage. After 5 days, the number of diamondback moths was counted, and the controlling value was calculated by the above equation. Furthermore, preparations of the test compound (7) and a comparative compound of the formula [drawing 523] obtained in a formulation according to Formulation Example 5 were diluted with water so that the active ingredient concentration became 0.2 ppm, to prepare test spray solution. At the same time, cabbage was planted in a polyethylene cup, and grown until the third true leaf or the fourth true leaf was developed. The test spray solution as described above was sprayed in an amount of 20 ml/cup on the cabbage. After the spray solution on the cabbage was dried, 10 third-instar larvae of diamondback moths (Plutella xylostella) were put on the cabbage. After 5 days, the number of diamondback moths was counted, and the controlling value was calculated by the above equation.

Test [2] relates to cotton aphids (Aphis gossypii). Kind of test: Test Example 2: spray on cucumber infested with cotton aphids. To be noted: topical, 144 h, 500 ppm active ingredient, 20 ml/cup spray on cucumber, about 30 aphids, counted six days after spraying, read-out: controlling value. On the procedure: Then, it will be shown by Test Examples that the present compound is effective in controlling harmful arthropods. In the Test Example, controlling values were calculated by the following equation: Controlling value(%)={1−(Cb×Tai)/(Cai×Tb)}×100 wherein Cb: the number of worms in a non-treated section before treatment Cai: the number of worms in a non-treated section on observation Tb: the number of worms in a treated-section before treatment Tai: the number of worms in a treated-section on observation. Preparations of the test compounds obtained in Formulation Example 5 were diluted with water so that the active ingredient concentration became 500 ppm to prepare test spray solutions. At the same time, cucumber was planted in a polyethylene cup, and was grown until the first true leaf was developed. About 30 cotton aphids were put on the cucumber. One day after, the test spray solution as described above was sprayed in an amount of 20 ml/cup on the cucumber. Six days after spraying, the number of cotton aphids (Aphis gossypii) was counted, and a controlling value was calculated by the above equation.

Test [3] concerns Spodoptera litura. Nature of the test: Test Example 3: spray on cabbage, fourth-instar larvae of Spodoptera litura. Particulars: 120 h, 500 ppm active ingredient, 20 ml/cup spray on cabbage, 10 fourth-instar larvae, counted after 5 days, read-out: controlling value. The protocol: Then, it will be shown by Test Examples that the present compound is effective in controlling harmful arthropods. In the Test Example, controlling values were calculated by the following equation: Controlling value(%)={1−(Cb×Tai)/(Cai×Tb)}×100 wherein Cb: the number of worms in a non-treated section before treatment Cai: the number of worms in a non-treated section on observation Tb: the number of worms in a treated-section before treatment Tai: the number of worms in a treated-section on observation. Preparations of the test compounds obtained in Formulation Example 5 were diluted with water so that the active ingredient concentration became 500 ppm to prepare test spray solutions. At the same time, cabbage was planted in a polyethylene cup, and grown until the third true leaf or the fourth true leaf was developed. The test spray solution as described above was sprayed in an amount of 20 ml/cup on the cabbage. After the spray solution sprayed on the cabbage was dried, 10 fourth-instar larvae of Spodoptera litura were put on the cabbage. After 5 days, the number of Spodoptera litura surviving on the cabbage leaves was counted, and a controlling value was calculated by the above equation.

Test [4] relates to Adoxophyes orana fasciata. Kind of test: Test Example 4: spray on apple seedling, first-instar larvae of Adoxophyes orana fasciata. Particulars: 168 h, 500 ppm active ingredient, 20 ml spray on apple seedling, about 30 first-instar larvae, counted seven days after spraying, read-out: controlling value. On the procedure: Then, it will be shown by Test Examples that the present compound is effective in controlling harmful arthropods. In the Test Example, controlling values were calculated by the following equation: Controlling value(%)={1−(Cb×Tai)/(Cai×Tb)}×100 wherein Cb: the number of worms in a non-treated section before treatment Cai: the number of worms in a non-treated section on observation Tb: the number of worms in a treated-section before treatment Tai: the number of worms in a treated-section on observation. Preparations of the test compounds obtained in Formulation Example 5 were diluted with water so that the active ingredient concentration became 500 ppm to prepare test spray solutions. At the same time, 20 ml of the test spray solution as described above was sprayed to an apple seedling (28 day-old seeding, tree height: about 15 cm) planted in a plastic cup. The apple seedling was air-dried to such an extent that the spray solution sprayed on the apple seedling was dried. About 30 first-instar larvae of Adoxophyes orana fasciata were released. Seven days after spraying, the number of worms surviving on the apple seedling was counted, and a controlling value was calculated by the above equation.

On to `COC(=O)N(C)N(C)C(=O)c1nc(Cl)cc(C)c1NC(=O)c1cc(Br)nn1-c1ncccc1Cl` [Compound 9, N′-(3-{[5-bromo-2-(3-chloro-pyridin-2-yl)-2H-pyrazole-3-carbonyl]-amino}-6-chloro-4-methyl-pyridine-2-carbonyl)-N,N′-dimethyl-hydrazinecarboxylic acid methyl ester], for which the pest or weed control at 500 ppm in test [1] was at least 90%; in test [2] it was at least 90%; in test [3] it was at least 80%.
Take `COC(=O)N(C)NC(=O)c1nc(Cl)cc(C)c1NC(=O)c1cc(Br)nn1-c1ncccc1Cl` [Compound 8, N′-(3-{[5-bromo-2-(3-chloro-pyridin-2-yl)-2H-pyrazole-3-carbonyl]-amino}-6-chloro-4-methyl-pyridine-2-carbonyl)-N-methyl-hydrazinecarboxylic acid methyl ester]: the pest or weed control at 500 ppm in test [1] is at least 90%; in test [2], at least 90%; in test [3], at least 80%; in test [4], at least 90%.
For `COC(=O)NNC(=O)c1cc(Cl)nc(Br)c1NC(=O)c1cc(Br)nn1-c1ncccc1Cl` [Compound 4, N′-(2-bromo-3-{[5-bromo-2-(3-chloro-pyridin-2-yl)-2H-pyrazole-3-carbonyl]-amino}-6-chloro-pyridine-4-carbonyl)-hydrazinecarboxylic acid methyl ester], the pest or weed control at 500 ppm is at least 90% in test [1], at least 90% in test [2], at least 80% in test [3] and at least 90% in test [4].
In the case of `CCN(NC(=O)c1nc(Cl)cc(C)c1NC(=O)c1cc(Br)nn1-c1ncccc1Cl)C(=O)OC` [Compound 10, N′-(3-{[5-bromo-2-(3-chloro-pyridin-2-yl)-2H-pyrazole-3-carbonyl]-amino}-6-chloro-4-methyl-pyridine-2-carbonyl)-N-ethyl-hydrazinecarboxylic acid methyl ester], the values for the pest or weed control at 500 ppm in test [1], in test [2] and in test [3] were at least 90%, at least 90% and at least 80%, respectively.
On to `COC(=O)NNC(=O)c1cc(Br)nc(Br)c1NC(=O)c1cc(Br)nn1-c1ncccc1Cl` [Compound 5, N′-(2,6-dibromo-3-{[5-bromo-2-(3-chloro-pyridin-2-yl)-2H-pyrazole-3-carbonyl]-amino}-pyridine-4-carbonyl)-hydrazinecarboxylic acid methyl ester], for which the pest or weed control at 500 ppm is at least 90% in test [1], at least 90% in test [2], at least 80% in test [3] and at least 90% in test [4].
For the compound `COC(=O)NNC(=O)c1nc(Cl)cc(Cl)c1NC(=O)c1cc(Br)nn1-c1ncccc1Cl` [Compound 14, N′-(3-{[5-bromo-2-(3-chloro-pyridin-2-yl)-2H-pyrazole-3-carbonyl]-amino}-4,6-dichloro-pyridine-2-carbonyl)-hydrazinecarboxylic acid methyl ester], the pest or weed control at 500 ppm is at least 90% in test [1], at least 90% in test [2], at least 80% in test [3] and at least 90% in test [4].
Turning to `COC(=O)NNC(=O)c1cnn(C)c1NC(=O)c1cc(Br)nn1-c1ncccc1Cl` [Compound 19, N′-(5-{[5-bromo-2-(3-chloro-pyridin-2-yl)-2H-pyrazole-3-carbonyl]-amino}-1-methyl-1H-pyrazole-4-carbonyl)-hydrazinecarboxylic acid methyl ester], the pest or weed control at 500 ppm in test [1], in test [2] and in test [4] was at least 90% each time.
For `CCN(NC(=O)OC)C(=O)c1nc(Br)cc(Br)c1NC(=O)c1cc(Br)nn1-c1ncccc1Cl` [Compound 16, N′-(4,6-dibromo-3-{[5-bromo-2-(3-chloro-pyridin-2-yl)-2H-pyrazole-3-carbonyl]-amino}-pyridine-2-carbonyl)-N′-ethyl-hydrazinecarboxylic acid methyl ester], the pest or weed control at 500 ppm in test [1] is at least 90%; in test [2] it was at least 90%; in test [3], at least 80%.
With `COC(=O)NNC(=O)c1cccnc1NC(=O)c1cc(C(F)(F)F)nn1-c1ncccc1Cl` [Compound 17, N′-(2-{[2-(3-chloro-pyridin-2-yl)-5-trifluoromethyl-2H-pyrazole-3-carbonyl]-amino}-pyridine-3-carbonyl)-hydrazinecarboxylic acid methyl ester], the pest or weed control at 500 ppm in test [1] was at least 90%; in test [3], at least 80%.
Consider `CCN(NC(=O)OC)C(=O)c1nc(Cl)cc(C)c1NC(=O)c1cc(Br)nn1-c1ncccc1Cl` [Compound 11, N′-(3-{[5-bromo-2-(3-chloro-pyridin-2-yl)-2H-pyrazole-3-carbonyl]-amino}-6-chloro-4-methyl-pyridine-2-carbonyl)-N′-ethyl-hydrazine carboxylic acid methyl ester], for which the pest or weed control at 500 ppm in test [1] was at least 90%; in test [2] it was at least 90%; in test [3] it was at least 80%.
Consider `Cc1cc(Cl)nc(C(=O)NN(C)C)c1NC(=O)c1cc(Br)nn1-c1ncccc1Cl` [reference compound], for which, in test [1] (0.2 ppm active ingredient), the control value result is reported as “less than 80%”.
For `COC(=O)NNC(=O)c1scc(C)c1NC(=O)c1cc(Br)nn1-c1ncccc1Cl` [Compound 18, N′-(3-{[5-bromo-2-(3-chloro-pyridin-2-yl)-2H-pyrazole-3-carbonyl]-amino}-4-methyl-thiophene-2-carbonyl)-hydrazinecarboxylic acid methyl ester], the pest or weed control at 500 ppm in test [2] was at least 90%.
`COC(=O)NNC(=O)c1cc(Cl)nc(Cl)c1NC(=O)c1cc(C(F)(F)F)nn1-c1ncccc1Cl` [Compound 2, N′-(2,6-dichloro-3-{[2-(3-chloro-pyridin-2-yl)-5-trifluoromethyl-2H-pyrazole-3-carbonyl]-amino}-pyridine-4-carbonyl)-hydrazinecarboxylic acid methyl ester]: the pest or weed control at 500 ppm in test [1], in test [2] and in test [4] was at least 90% throughout.
